Data published in US5281598A, “Piperazine derivatives” (Akzo N.V., priority 1992, dated 1994).

Assays:
[1] = biological target: α1 adrenoceptor; assay: α1 adrenoceptor affinity, prazosin (PRA) binding
Protocol: (§1) The activities are expressed as pKi values (-log Ki values; Ki being the binding constant). The sigma receptor binding was assessed by the 1,3-di-o-tolylguanidine (DTG) binding as described by Fox et al., Eur. J. Pharmacol., 193, 139-143, 1991. The α1 adrenoceptor affinity was assessed by the prazosin (PRA) binding as described by de Boer et al., Arzneim. Forsch., 40, 550-554, 1990.

[2] = biological target: sigma receptor; assay: sigma receptor binding, 1,3-di-o-tolylguanidine (DTG) binding; details: 1,3-di-o-tolylguanidine binding
Protocol: as §1

[3] = system: sigma receptor; details: in words; disclosed in WO 91/09594; cited from earlier work
[4] = system: α1 adrenoceptor; assay: α1 adrenoceptor activity of the prior art compounds (statement in background); details: in words
[5] = in words; literature (Tamminga and Gerlach); cited from earlier work

PRA pKi (-log Ki) [1] | DTG pKi (-log Ki) [2] | Structure (SMILES) | sigma receptor affinity [3] | α1 adrenoceptor activity [4] | induction of orthostatic hypotension [5]
5.7 | 8.7 | Cl.Cl.c1ccc(CCCN2CCN(CCOCc3ccccc3)CC2)cc1 [Compound of Example 1, 1-[2-(phenylmethoxy)ethyl]-4-(3-phenylpropyl)piperazine dihydrochloride] |  |  | 
8.7 | 8.2 | c1ccc(CCCN2CCN(c3ccccc3)CC2)cc1 [Compound 46 of WO 91/09594] | displaying sigma receptor affinity | possess α1 adrenoceptor activity | 
 |  | CN1CCN(C2=Nc3cc(Cl)ccc3Nc3ccccc32)CC1 [clozapine] |  |  | induction of orthostatic hypotension

Structure (SMILES) | PRA pKi (-log Ki) [1] | DTG pKi (-log Ki) [2] | sigma receptor affinity [3] | α1 adrenoceptor activity [4] | induction of orthostatic hypotension [5]
c1ccc(CCCCN2CCN(Cc3ccccc3)CC2)cc1 [Compound 79 of WO 91/09594] | 7.4 | 8.6 | displaying sigma receptor affinity | possess α1 adrenoceptor activity | 
